Measured values as given in ChEMBL document CHEMBL4229545, “Oximes short-acting CB1 receptor agonists” (Bioorg Med Chem, 2018).
Activity calls are given as the source filed them. No cut-off for these calls is given here.

Columns and labels:
[1] = target: T1, Cannabinoid receptor 2 (Homo sapiens, UniProt P34972); assay: Displacement of [3H]CP-55,940 from recombinant human Cb2 receptor expressed in HEK293 cells; format: cell-based
[2] = target: T2, Cannabinoid receptor 1 (Rattus norvegicus, UniProt P20272); assay: Displacement of [3H]CP-55,940 from rat brain Cb1 receptor
[3] = target: Cannabinoid receptor 2 (Mus musculus, UniProt P47936); assay: Displacement of [3H]CP-55,940 from recombinant mouse Cb2 receptor expressed in HEK293 cells; format: cell-based
[4] = target: T1, Cannabinoid receptor 2; assay: Agonist activity at recombinant human Cb2 receptor expressed in HEK293 cells assessed as inhibition of forskolin-stimulated cAMP levels; format: functional, cell-based; conditions: read-out: EC50
[5] = target: T2, Cannabinoid receptor 1; assay: Agonist activity at recombinant rat Cb1 receptor expressed in HEK293 cells assessed as inhibition of forskolin-stimulated cAMP levels; format: functional, cell-based
[6] = target: Cannabinoid receptor 1 (Rattus norvegicus) (UniProt P20272); assay: Agonist activity at recombinant rat Cb1 receptor expressed in HEK293 cells assessed as inhibition of forskolin-stimulated cAMP levels relative to control; format: functional, cell-based
[7] = target: T1, Cannabinoid receptor 2; assay: Agonist activity at recombinant human Cb2 receptor expressed in HEK293 cells assessed as inhibition of forskolin-stimulated cAMP levels relative to CP-55940; format: functional, cell-based
[8] = target: Cannabinoid receptor 1 (Rattus norvegicus) (UniProt P20272); assay: Displacement of [3H]CP-55,940 from rat brain Cb1 receptor expressed in HEK293 cells at 10 times Ki incubated for 1 hr followed by 5 times membrane washout; format: cell-based
[9] = Ratio of AUC in plasma to kidney of CD1 mouse at 10 mg/kg, po; format: ADME, organism-based; conditions: in vivo
[10] = AUC in CD1 mouse fat at 2 mg/kg, iv; format: ADME, organism-based, Adipose tissue
[11] = Ratio of AUC in plasma to spleen of CD1 mouse at 2 mg/kg, iv; format: ADME, organism-based; conditions: in vivo
[12] = Ratio of AUC in plasma to liver of CD1 mouse at 2 mg/kg, iv; format: ADME, organism-based; conditions: in vivo
[13] = Ratio of AUC in plasma to fat of CD1 mouse at 10 mg/kg, po; format: ADME, organism-based, Adipose tissue/Plasma; conditions: in vivo
[14] = AUC in CD1 mouse spleen at 10 mg/kg, po; format: ADME, organism-based
[15] = tested on: Rattus norvegicus; assay: Induction of hypothermia in Sprague-Dawley rat assessed as decrease in body temperature at 1 mg/kg, ip measured after 24 hrs; format: functional, organism-based
[16] = Half life in simulated gastric fluid; format: ADME
[17] = AUC in CD1 mouse plasma at 2 mg/kg, iv; format: ADME, organism-based
[18] = target: Cannabinoid receptor 1 (Rattus norvegicus) (UniProt P20272); assay: Displacement of [3H]CP-55,940 from rat brain Cb1 receptor expressed in HEK293 cells at 10 times Ki measured after 1 hr relative to control; format: cell-based
[19] = Half life in human liver microsomes; format: ADME, microsome
[20] = Volume of distribution in CD1 mouse at 2 mg/kg, iv; format: ADME, organism-based; conditions: in vivo
[21] = AUC in CD1 mouse brain at 10 mg/kg, po; format: ADME, organism-based
[22] = Half life in rat plasma; format: ADME, cell-free
[23] = AUC in CD1 mouse liver at 10 mg/kg, po; format: ADME, organism-based
[24] = AUC in CD1 mouse plasma at 10 mg/kg, po; format: ADME, organism-based
[25] = AUC in CD1 mouse fat at 10 mg/kg, po; format: ADME, organism-based, Adipose tissue
[26] = Ratio of AUC in plasma to brain of CD1 mouse at 2 mg/kg, iv; format: ADME, organism-based; conditions: in vivo
[27] = Ratio of AUC in plasma to fat of CD1 mouse at 2 mg/kg, iv; format: ADME, organism-based, Adipose tissue/Plasma; conditions: in vivo
[28] = organism: Rattus norvegicus; conditions: Sprague-Dawley
Description: Induction of hypothermia in ip dosed Sprague-Dawley rat assessed as decrease in body temperature measured up to 180 mins

[29] = tested on: Rattus norvegicus; assay: Induction of hypothermia in Sprague-Dawley rat assessed as decrease in body temperature at 1 to 10 mg/kg, ip measured after 180 to 360 mins; format: functional, organism-based
[30] = Half life in human plasma; format: ADME, cell-free
[31] = Half life in mouse plasma; format: ADME, cell-free
[32] = AUC in CD1 mouse urine at 10 mg/kg, po; format: ADME, organism-based
[33] = AUC in CD1 mouse at 10 mg/kg, po; format: ADME, organism-based; conditions: in vivo
[34] = Tmax in CD1 mouse at 10 mg/kg, po; format: ADME, organism-based; conditions: in vivo
[35] = Ratio of AUC in plasma to brain of CD1 mouse at 10 mg/kg, po; format: ADME, organism-based; conditions: in vivo
[36] = Ratio of AUC in plasma to urine of CD1 mouse at 10 mg/kg, po; format: ADME, organism-based; conditions: in vivo
[37] = Half life in CD1 mouse at 10 mg/kg, po; format: ADME, organism-based; conditions: in vivo
[38] = Half life in rat liver microsomes; format: ADME, microsome
[39] = AUC in CD1 mouse kidney at 10 mg/kg, po; format: ADME, organism-based
[40] = AUC in CD1 mouse kidney at 2 mg/kg, iv; format: ADME, organism-based
[41] = Ratio of AUC in plasma to liver of CD1 mouse at 10 mg/kg, po; format: ADME, organism-based; conditions: in vivo
[42] = AUC in CD1 mouse spleen at 2 mg/kg, iv; format: ADME, organism-based
[43] = Half life in CD1 mouse at 2 mg/kg, iv; format: ADME, organism-based; conditions: in vivo
[44] = AUC in CD1 mouse at 2 mg/kg, iv; format: ADME, organism-based; conditions: in vivo
[45] = tested on: Mus musculus; assay: Analgesic activity in CD1 mouse model of thermal-induced nociception assessed as tail withdrawal latency at 1 mg/kg, ip measured after 180 to 360 mins by tail flick test; format: functional, organism-based
[46] = Ratio of AUC in plasma to spleen of CD1 mouse at 10 mg/kg, po; format: ADME, organism-based; conditions: in vivo
[47] = tested on: Rattus norvegicus; assay: Induction of hypothermia in Sprague-Dawley rat assessed as decrease in body temperature at 1 mg/kg, ip measured after 3 to 6 hrs; format: functional, organism-based
[48] = tested on: Mus musculus; assay: Analgesic activity in ip dosed CD1 mouse model of thermal-induced nociception assessed as tail withdrawal latency measured after 20 mins by tail flick test; format: functional
[49] = AUC in CD1 mouse brain at 2 mg/kg, iv; format: ADME, organism-based
[50] = AUC in CD1 mouse liver at 2 mg/kg, iv; format: ADME, organism-based
[51] = Half life in mouse liver microsomes; format: ADME, microsome
[52] = Ratio of AUC in plasma to kidney of CD1 mouse at 2 mg/kg, iv; format: ADME, organism-based; conditions: in vivo
[53] = tested on: Mus musculus; assay: Volume of distribution in CD1 mouse at 10 mg/kg, po; format: ADME, organism-based; conditions: in vivo

T2 sequence (P20272 whole entry): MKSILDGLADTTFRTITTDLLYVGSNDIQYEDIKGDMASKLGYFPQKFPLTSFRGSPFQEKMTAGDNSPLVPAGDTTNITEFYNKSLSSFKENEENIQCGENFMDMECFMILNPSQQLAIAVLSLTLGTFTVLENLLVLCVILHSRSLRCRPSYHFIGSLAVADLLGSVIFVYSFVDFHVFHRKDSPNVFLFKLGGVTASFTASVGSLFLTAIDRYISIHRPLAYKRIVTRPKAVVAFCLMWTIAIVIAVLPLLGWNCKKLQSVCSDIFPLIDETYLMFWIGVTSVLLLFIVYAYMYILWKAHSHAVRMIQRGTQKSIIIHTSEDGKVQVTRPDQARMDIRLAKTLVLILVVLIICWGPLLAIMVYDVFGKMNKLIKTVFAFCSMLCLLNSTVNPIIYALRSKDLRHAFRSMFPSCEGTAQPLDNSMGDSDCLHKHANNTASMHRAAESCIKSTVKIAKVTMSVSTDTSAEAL
Sequence of Cannabinoid receptor 1 (Rattus norvegicus) (P20272 whole entry): as above
Sequence of Cannabinoid receptor 2 (Mus musculus, UniProt P47936) (P47936 whole entry): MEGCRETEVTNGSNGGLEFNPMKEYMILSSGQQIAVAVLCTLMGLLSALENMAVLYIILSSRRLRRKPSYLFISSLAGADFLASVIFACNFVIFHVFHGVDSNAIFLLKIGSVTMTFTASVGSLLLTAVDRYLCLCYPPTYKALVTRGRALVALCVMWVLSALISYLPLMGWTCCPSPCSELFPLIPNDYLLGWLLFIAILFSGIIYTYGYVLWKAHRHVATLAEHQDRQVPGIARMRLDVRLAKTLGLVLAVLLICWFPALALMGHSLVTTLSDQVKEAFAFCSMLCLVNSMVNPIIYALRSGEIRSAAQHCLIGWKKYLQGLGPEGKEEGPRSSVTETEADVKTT
T1 sequence (P34972 whole entry): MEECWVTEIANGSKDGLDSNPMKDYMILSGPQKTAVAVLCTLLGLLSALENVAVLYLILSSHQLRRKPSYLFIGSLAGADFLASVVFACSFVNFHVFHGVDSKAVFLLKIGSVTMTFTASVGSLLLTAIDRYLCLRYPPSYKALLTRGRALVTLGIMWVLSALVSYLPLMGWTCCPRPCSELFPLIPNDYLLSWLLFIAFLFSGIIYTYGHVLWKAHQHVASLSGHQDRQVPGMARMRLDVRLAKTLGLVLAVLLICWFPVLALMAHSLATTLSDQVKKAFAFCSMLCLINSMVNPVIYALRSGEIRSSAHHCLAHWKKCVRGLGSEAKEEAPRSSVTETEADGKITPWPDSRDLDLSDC

## CC1=CC[C@H]2[C@H](C1)c1c(O)cc(/C(C)=N/OCCN3CCOCC3)cc1OC2(C)C
[1]
  Ki: 0.7 nM
[2]
  Ki: 7 nM
[3]
  Ki: 1.8 nM

## CC1=CC[C@H]2[C@H](C1)c1c(O)cc(/C(C)=N/OCCCc3ccccc3)cc1OC2(C)C
[1]
  Ki: 2.7 nM
[4]
  EC50: 1.65 nM
[5]; read-out: EC50
  EC50: 2.6 nM
[2]
  Ki: 3 nM
[6]
  Emax: 27%
[7]
  Emax: 35%
[3]
  Ki: 3.8 nM

## CC1=CC[C@H]2[C@H](C1)c1c(O)cc(/C(C)=N/OCCOc3ccccc3)cc1OC2(C)C
[1]
  Ki: 6.2 nM
[4]
  EC50: 49.6 nM
[5]; read-out: EC50
  EC50: 0.9 nM
[2]
  Ki: 11.4 nM
[6]
  Emax: 56%
[7]
  Emax: 99%
[3]
  Ki: 3.7 nM

## CC1=CC[C@H]2[C@H](C1)c1c(O)cc(/C(C)=N/OCCCC(F)(F)F)cc1OC2(C)C
[1]
  Ki: 3 nM
[4]
  EC50: 1 nM
[5]; read-out: EC50
  EC50: 0.4 nM
[2]
  Ki: 0.3 nM
[6]
  Emax: 69%
[7]
  Emax: 43%
[3]
  Ki: 0.5 nM

## CCCCCCC(C)(C)c1cc(O)c2c(c1)OC(C)(C)[C@H]1CC=C(C)C[C@H]21
[1]
  Ki: 9 nM
[2]
  Ki: 0.77 nM
[3]
  Ki: 3.2 nM

## CC1=CC[C@H]2[C@H](C1)c1c(O)cc(/C(C)=N/OCCCC#N)cc1OC2(C)C
[8]
  inhibition: 23%
[9]
  Ratio AUC: 2.06
[10]
  AUC: 5390 ng·h/mL
[11]
  Ratio AUC: 1.06
[12]
  Ratio AUC: 0.64
[13]
  Ratio AUC: 5.72
[14]
  AUC: 107 ng·h/mL
[15]
  Activity: inactive
[16]
  half-life: > 60 min
[17]
  AUC: 900 ng·h/mL
[18]
  inhibition: 44%
[19]
  half-life: 9 min
[20]
  Vd: 2.16 L/kg
[21]
  AUC: 154 ng·h/mL
[1]
  Ki: 1.3 nM
[22]
  half-life: > 60 min
[23]
  AUC: 308 ng·h/mL
[4]
  EC50: 12 nM
[24]
  AUC: 124 ng·h/mL
[25]
  AUC: 710 ng·h/mL
[26]
  Ratio AUC: 0.49
[27]
  Ratio AUC: 5.98
[28]
  deltaT: 4.5 to 7.7 °C
[29]
  Activity: inactive
[30]
  half-life: > 60 min
[31]
  half-life: > 60 min
[32]
  AUC: 11.3 ng·h/mL
[33]
  AUC: 1240 ng·h/mL
[34]
  Tmax: 60 min
[35]
  Ratio AUC: 1.24
[36]
  Ratio AUC: 0.09
[37]
  half-life: 35.2 min
[38]
  half-life: 12 min
[39]
  AUC: 257 ng·h/mL
[5]; read-out: EC50
  EC50: 4.4 nM
[2]
  Ki: 0.9 nM
[6]
  Emax: 51%
[40]
  AUC: 890 ng·h/mL
[41]
  Ratio AUC: 2.48
[7]
  Emax: 47%
[42]
  AUC: 957 ng·h/mL
[43]
  half-life: 47.3 min
[44]
  AUC: 1060 ng·h/mL
[45]
  Activity: Active
[46]
  Ratio AUC: 0.86
[3]
  Ki: 2.6 nM
[47]
  Activity: Active
[48]
  Activity: Dose-dependent effect
  ED50: 1.42 mg/kg
[49]
  AUC: 443 ng·h/mL
[50]
  AUC: 580 ng·h/mL
[51]
  half-life: 13 min
[52]
  Ratio AUC: 0.99
[53]
  Vd: 68.042 L/kg

## CCCCO/N=C(\C)c1cc(O)c2c(c1)OC(C)(C)[C@H]1CC=C(C)C[C@H]21
[1]
  Ki: 16.9 nM
[4]
  EC50: 9.14 nM
[5]; read-out: EC50
  EC50: 0.58 nM
[2]
  Ki: 3.4 nM
[6]
  Emax: 51%
[7]
  Emax: 116%
[3]
  Ki: 1.6 nM

## CC1=CC[C@H]2[C@H](C1)c1c(O)cc(/C(C)=N\OCCCC#N)cc1OC2(C)C
[1]
  Ki: 0.4 nM
[4]
  EC50: 2 nM
[5]; hek293
  EC50: Not Active
[2]
  Ki: 0.3 nM
[7]
  Emax: 35%
[3]
  Ki: 0.1 nM

## CCO/N=C(\C)c1cc(O)c2c(c1)OC(C)(C)[C@H]1CC=C(C)C[C@H]21
[2]
  Ki: 66.1 nM
[3]
  Ki: 74.8 nM
